Assay [1] relates to breast cancer cell line BT-549. As to the kind of experiment: Various human cancer cell growth inhibition test: BT-549. The conditions noted are these: ATPlite, read-out: GI50 value (concentration necessary for inhibiting 50% of cell growth). It counts as cell-based. From the text: (§1) A breast cancer cell line BT-549 (obtained from American Type Culture Collection (ATCC)), a uterus cancer cell line C-33A (obtained from ATCC), an ovary cancer cell line PA-1 (obtained from ATCC), a large-cell lung cancer cell line NCI-H460 (obtained from ATCC), a small-cell lung cancer cell line NCI-H82 (obtained from ATCC), a kidney cancer cell line ACHN (obtained from ATCC), a pancreatic cancer cell line BxPC-3 (obtained from ATCC), a malignant melanoma cell line A375 (obtained from ATCC), a throat cancer cell line FaDu (obtained from ATCC), a medulloblastoma cell line Daoy (obtained from ATCC), a cutaneous epithelioid sarcoma cell line VA-ES-BJ (obtained from ATCC), a rhabdomyosarcoma cell line A-204 (obtained from ATCC), a prostate cancer cell line DU145 (obtained from ATCC), a bladder cancer cell line T24 (obtained from ATCC), a lymphoma cell line SR (obtained from ATCC), a neuroblastoma cell line SH-SY5Y (obtained from DS Pharma Biomedical Co., Ltd.), a liver cancer cell line HepG2 (obtained from DS Pharma Biomedical Co., Ltd.), a stomach cancer cell line HGC-27 (obtained from DS Pharma Biomedical Co., Ltd.), and a multiple myeloma cell line NCI-H929 (obtained from DS Pharma Biomedical Co., Ltd.) were used as human cancer cell lines.
(§2) Each cell line was cultured in a cell culture medium recommended by ATCC or DS Pharma Biomedical Co., Ltd. and inoculated at 0.3 to 5.0×10^3 cells/well to a 96-well plate. The cells were cultured overnight in a carbon dioxide incubator of 37° C. containing 5% carbon dioxide. The medium was replaced with a fresh medium on the next day, then replaced with a mixed solution of a DMSO solution of a test compound with varying concentrations and a culture medium (final DMSO concentration: 0.1%), and left standing in a carbon dioxide incubator (day 0). IV-361, IV-379, IV-3, IV-215, IV-299, IV-669, IV-1049, and palbociclib (for comparison) were used as test compounds. For a control group, DMSO was added instead of the DMSO solution of the test compound to a cell culture medium (final DMSO concentration: 0.1%).
(§3) After culture for a predetermined period, the ATP activity of BT-549, C-33A, PA-1, NCI-H460, NCI-H82, ACHN, BxPC-3, A375, FaDu, Daoy, VA-ES-BJ, A-204, DU145, T24, and SR was measured by using ATPlite (manufactured by PerkinElmer, Inc.). The ATP activity of SH-SY5Y, HepG2, HGC-27, and NCI-H929 was measured by using CellTiter-Glo (manufactured by Promega Corp.).
(§4) The rate of inhibition of cell growth (%) was calculated according to the expression given below. Specifically, in the case where the difference between the ATP activity before culture (day 0) and the ATP activity after culture in the test compound-administered group is the same as the difference between the ATP activity before culture (day 0) and the ATP activity after culture in the control group, the rate of inhibition of cell growth is 0%. Rate of inhibition of cell growth=(1−((ATP activity of the test compound-administered group after culture)−(ATP activity of the test compound-administered group on day 0))/((ATP activity of the control group after culture)−(ATP activity of the control group on day 0)))×100
(§5) The concentration of the test compound necessary for inhibiting 50% of cell growth (GI50 value) was calculated by using EXSUS (version 8.1.0, manufactured by CAC Exicare Corp.).
(Cellular ATP, detected with luciferase, serves as a proxy for viable cell number.)

The subject of assay [2] is uterus cancer cell line C-33A. Briefly: Various human cancer cell growth inhibition test: C-33A. It counts as cell-based. The conditions noted are these: ATPlite, read-out: GI50 value (concentration necessary for inhibiting 50% of cell growth).
Description: as §1, §2, §3, §4, §5

In assay [3] the test system is large-cell lung cancer cell line NCI-H460. As to the kind of experiment: Various human cancer cell growth inhibition test: NCI-H460. The conditions noted are these: ATPlite, read-out: GI50 value (concentration necessary for inhibiting 50% of cell growth). In kind it is cell-based.
Description: as §1, §2, §3, §4, §5

Assay [4] concerns kidney cancer cell line ACHN. As to the kind of experiment: Various human cancer cell growth inhibition test: ACHN. To be noted: ATPlite, read-out: GI50 value (concentration necessary for inhibiting 50% of cell growth). In kind it is cell-based.
Description: as §1, §2, §3, §4, §5

Assay [5] has as its system small-cell lung cancer cell line NCI-H82. As to the kind of experiment: Various human cancer cell growth inhibition test: NCI-H82. It counts as cell-based. To be noted: ATPlite, read-out: GI50 value (concentration necessary for inhibiting 50% of cell growth).
Description: as §1, §2, §3, §4, §5

Assay [6] deals with medulloblastoma cell line Daoy. As to the kind of experiment: Various human cancer cell growth inhibition test: Daoy. To be noted: ATPlite, read-out: GI50 value (concentration necessary for inhibiting 50% of cell growth). In kind it is cell-based.
Description: as §1, §2, §3, §4, §5

For assay [7], the system named is pancreatic cancer cell line BxPC-3. As to the kind of experiment: Various human cancer cell growth inhibition test: BxPC-3. In kind it is cell-based. To be noted: ATPlite, read-out: GI50 value (concentration necessary for inhibiting 50% of cell growth).
Description: as §1, §2, §3, §4, §5

Assay [8] concerns multiple myeloma cell line NCI-H929. Briefly: Various human cancer cell growth inhibition test: NCI-H929. It counts as cell-based. The conditions noted are these: CellTiter-Glo, read-out: GI50 value (concentration necessary for inhibiting 50% of cell growth).
Description: as §1, §2, §3, §4, §5

In assay [9] the test system is stomach cancer cell line HGC-27. As to the kind of experiment: Various human cancer cell growth inhibition test: HGC-27. In kind it is cell-based. The conditions noted are these: CellTiter-Glo, read-out: GI50 value (concentration necessary for inhibiting 50% of cell growth).
Description: as §1, §2, §3, §4, §5

For assay [10], the system named is mouse imiquimod-induced psoriasis model. Briefly: Ear thickening suppression test using mouse imiquimod-induced psoriasis model. It counts as in vivo. To be noted: topical, application of a 0.01% solution in methanol, female BALB/c mice, read-out: rate of inhibition of increase in ear thickness. As for the experimental part: An imiquimod-induced psoriasis model test was carried out by modifying the method of Leslie van der Fits et al. (J. Immunol. 182, 5836 (2009)).
Female BALB/c mice (supplied by Charles River Laboratories Japan, Inc.) were used as laboratory animals. On the start day of the test, the thicknesses of the right auricles of the mice were measured with a thickness gauge (manufactured by TECLOCK Corp.). A test compound or a solvent was applied or orally administered thereto, and after a certain time, a certain amount of Beselna Cream 5% (containing 5% imiquimod, manufactured by Mochida Pharmaceutical Co., Ltd.) was applied to the insides of the right auricles. The test compound or solvent application or oral administration and the imiquimod application were carried out for a certain period, and the thicknesses of the right auricles were measured again on the final day. The thicknesses of the right auricles were compared between the solvent-administered group and the test compound group, and the rate of inhibition was calculated.

GI50 and inhibition in vivo data for twelve compounds are collected here from patent US10894798B2, “Substituted dihydropyrrolopyrazole derivative” (UBE INDUSTRIES, LTD., priority 2015, dated 2021).

As for `CC1(C)c2[nH]nc(NC(=O)C3([Si](C)(C)C)CCC3)c2CN1C(=O)Nc1ccccc1F` [IV-3, N-(2-Fluorophenyl)-6,6-dimethyl-3-[1-(trimethylsilyl)cyclobutanecarboxamido]-4,6-dihydropyrrolo[3,4-c]pyrazole-5(1H)-carboxamide], the GI50 in assay [1], in assay [2], in [3], in assay [4], in assay [5] and in [6] was < 300 nM in each case. In addition, the GI50 in assay [7], in assay [8] and in [9] was < 300 nM each time.
For `Cc1cccc(F)c1NC(=O)N1Cc2c(NC(=O)C3([Si](C)(C)C)CCC3)n[nH]c2C1(C)C` [IV-129, N-(2-Fluoro-6-methylphenyl)-6,6-dimethyl-3-[1-(trimethylsilyl)cyclobutanecarboxamido]-4,6-dihydropyrrolo[3,4-c]pyrazole-5 (1H)-carboxamide], the inhibition in vivo at 0.01 % in [10] is ≥ 50%.
The same measure, in the same setting: then `CCc1cccc(F)c1NC(=O)N1Cc2c(NC(=O)C3([Si](C)(C)C)CCC3)n[nH]c2C1(C)C` [IV-137, N-(2-Ethyl-6-fluorophenyl)-6,6-dimethyl-3-[1-(trimethylsilyl)cyclobutanecarboxamido]-4,6-dihydropyrrolo[3,4-c]pyrazole-5(1H)-carboxamide], with ≥ 50%; and `CC1(C)c2[nH]nc(NC(=O)C3([Si](C)(C)C)CCC3)c2CN1C(=O)Nc1c(F)cccc1OC(F)F` [IV-169, N-[2-(Difluoromethoxy)-6-fluorophenyl]-6,6-dimethyl-3-[1-(trimethylsilyl)cyclobutanecarboxamido]-4,6-dihydropyrrolo[3,4-c]pyrazole-5(1H)-carboxamide], with ≥ 50%.
`CC1(C)c2[nH]nc(NC(=O)C3([Si](C)(C)C)CCC3)c2CN1C(=O)Nc1c(Cl)cccc1Cl` [IV-199, N-(2,6-Dichlorophenyl)-6,6-dimethyl-3-[1-(trimethylsilyl)cyclobutanecarboxamido]-4,6-dihydropyrrolo[3,4-c]pyrazole-5(1H)-carboxamide]: in assay [10], the inhibition in vivo at 0.01 % was ≥ 50%.
Take `Cc1cccc(Cl)c1NC(=O)N1Cc2c(NC(=O)C3([Si](C)(C)C)CCC3)n[nH]c2C1(C)C` [IV-215, N-(2-Chloro-6-methylphenyl)-6,6-dimethyl-3-[1-(trimethylsilyl)cyclobutanecarboxamido]-4,6-dihydropyrrolo[3,4-c]pyrazole-5 (1H)-carboxamide]: the GI50 in assay [1], in [2], in [3], in assay [4], in assay [5] and in [6] was < 300 nM in each case. In addition, the GI50 in [7], in assay [8] and in assay [9] was < 300 nM throughout. Besides, in [10], the inhibition in vivo at 0.01 % was ≥ 50%.
As to `COc1cccc(Cl)c1NC(=O)N1Cc2c(NC(=O)C3([Si](C)(C)C)CCC3)n[nH]c2C1(C)C` [IV-247, N-(2-Chloro-6-methoxyphenyl)-6,6-dimethyl-3-[1-(trimethylsilyl)cyclobutanecarboxamido]-4,6-dihydropyrrolo[3,4-c]pyrazole-5(1H)-carboxamide], the inhibition in vivo at 0.01 % in assay [10] was ≥ 50%.
In the case of `Cc1ccc(F)cc1NC(=O)N1Cc2c(NC(=O)C3([Si](C)(C)C)CCC3)n[nH]c2C1(C)C` [IV-361, N-(5-Fluoro-2-methylphenyl)-6,6-dimethyl-3-[1-(trimethylsilyl)cyclobutanecarboxamido]-4,6-dihydropyrrolo[3,4-c]pyrazole-5 (1H)-carboxamide], the GI50 in assay [1], in assay [2], in assay [3], in assay [4], in assay [5] and in [6] was < 300 nM throughout. In addition, the GI50 in assay [7], in [8] and in [9] was < 300 nM throughout.
As to `Cc1ccc(C)c(NC(=O)N2Cc3c(NC(=O)C4([Si](C)(C)C)CCC4)n[nH]c3C2(C)C)c1` [IV-379, N-(2,5-Dimethylphenyl)-6,6-dimethyl-3-[1-(trimethylsilyl)cyclobutanecarboxamido]-4,6-dihydropyrrolo[3,4-c]pyrazole-5(1H)-carboxamide], the GI50 in [1], in [2], in assay [3], in [4], in [5] and in assay [6] was < 300 nM throughout. Besides, the GI50 in assay [7], in assay [8] and in [9] was < 300 nM each time.
Take `CCc1cccc(C)c1NC(=O)N1Cc2c(NC(=O)C3([Si](C)(C)C)CCC3)n[nH]c2C1(C)C` [IV-389, N-(2-Ethyl-6-methylphenyl)-6,6-dimethyl-3-[1-(trimethylsilyl)cyclobutanecarboxamido]-4,6-dihydropyrrolo[3,4-c]pyrazole-5 (1H)-carboxamide]: the inhibition in vivo at 0.01 % in assay [10] is ≥ 50%.
Regarding `Cc1ccc(C)c(NC(=O)N2Cc3c(NC(=O)C4([Si](C)(C)C)CCC4)n[nH]c3C2(C)C)c1F` [IV-669, N-(2-Fluoro-3,6-dimethylphenyl)-6,6-dimethyl-3-[1-(trimethylsilyl)cyclobutanecarboxamido]-4,6-dihydropyrrolo[3,4-c]pyrazole-5(1H)-carboxamide], the GI50 in [1], in assay [2], in assay [3], in [4], in assay [5] and in assay [6] was < 300 nM each time. Moreover, the GI50 in [7], in [8] and in [9] was < 300 nM each time.
As for `CC1(C)c2[nH]nc(NC(=O)C3([Si](C)(C)C)CCC3)c2CN1C(=O)Nc1c(F)ccc2ccoc12` [IV-1049, N-(6-Fluorobenzofuran-7-yl)-6,6-dimethyl-3-[1-(trimethylsilyl)cyclobutanecarboxamido]-4,6-dihydropyrrolo[3,4-c]pyrazole-5 (1H)-carboxamide], the GI50 in assay [1], in assay [2], in [3], in assay [4], in assay [5] and in [6] was < 300 nM each time. Also, the GI50 in assay [7], in assay [8] and in assay [9] was < 300 nM each time.
